These are literature values, as cited in patent US10744110B2, “Methods of treating lung cancer” (Abraxis BioScience, LLC, priority 2013, dated 2020).

In this series the test system is NSCLC. Particulars: single agent.

Each structure is given as a SMILES string.

Take `CCC1=C[C@@H]2CN(C1)Cc1c([nH]c3ccccc13)[C@@](C(=O)OC)(c1cc3c(cc1OC)N(C)[C@H]1[C@@](O)(C(=O)OC)[C@H](OC(C)=O)[C@]4(CC)C=CCN5CC[C@]31[C@@H]54)C2` [vinorelbine]: the “response rate (RR)” value was 29.4%.
